{"source": "patent US20070111265A1", "about": "“Ligands for mineralocorticoid receptor (MR) and methods for screening for or designing MR ligands” (Van Andel Research Institute, priority 2005, published 2007)", "key": {"GR Q642L/P637S": {"molecular_target": "T1, GR Q642L/P637S (Homo sapiens, UniProt P04150, P637S/Q642L)", "T1 construct": "reverse mutations in the full length GR receptor (P637S and Q642L); expressed in transfected cells; host or cells: Cos-7", "T1 sequence (P04150 1-777 P637S/Q642L)": "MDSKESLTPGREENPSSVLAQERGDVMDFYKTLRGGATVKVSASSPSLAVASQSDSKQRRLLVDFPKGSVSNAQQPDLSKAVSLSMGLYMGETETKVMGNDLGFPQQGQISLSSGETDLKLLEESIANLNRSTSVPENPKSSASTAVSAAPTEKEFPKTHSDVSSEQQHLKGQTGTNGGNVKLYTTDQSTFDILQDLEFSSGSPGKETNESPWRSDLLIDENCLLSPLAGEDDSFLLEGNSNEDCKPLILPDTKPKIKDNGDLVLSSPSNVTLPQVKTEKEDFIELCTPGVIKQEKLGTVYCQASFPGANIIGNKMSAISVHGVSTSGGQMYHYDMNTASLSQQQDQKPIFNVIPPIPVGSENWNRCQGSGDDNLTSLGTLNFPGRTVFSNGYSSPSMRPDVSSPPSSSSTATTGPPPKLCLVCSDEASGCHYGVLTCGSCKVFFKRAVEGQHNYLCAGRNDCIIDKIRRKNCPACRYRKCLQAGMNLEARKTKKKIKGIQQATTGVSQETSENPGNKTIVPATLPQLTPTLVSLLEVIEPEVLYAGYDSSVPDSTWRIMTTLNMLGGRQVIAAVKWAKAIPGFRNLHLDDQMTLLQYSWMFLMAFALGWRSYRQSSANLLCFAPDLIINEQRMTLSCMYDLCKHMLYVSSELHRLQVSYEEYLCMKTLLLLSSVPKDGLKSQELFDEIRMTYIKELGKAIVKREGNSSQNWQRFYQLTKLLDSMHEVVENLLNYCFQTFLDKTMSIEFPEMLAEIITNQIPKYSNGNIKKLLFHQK", "assay": "MMTV luciferase reporter assay in Cos-7 cells", "format": "cell-based", "details": "additional mutation of P637S", "experimental": "(§1) Cos-7 cells were maintained in DMEM containing 10% fetal bovine serum (FBS) and were transiently transfected using Lipofectamine 2000 (Invitrogen). […] Cells were transfected in Opti-MEM with 400 ng of MMTV-Luc reporter plasmid and 400 ng of receptor expression vector (pRS vector) encoding full-length GR and MR respectively (ATCC). […] Luciferase data were normalized to Renilla activity as an internal control.\n(§2) To validate the role of the key MR pocket residues in hormone recognition, the inventors mutated S843 and L848 to the corresponding GR residues (S843P and L848Q) within the context of the full length wild type receptor. […] We also performed reverse mutations in the full length GR receptor (P637S and Q642L) and tested them in the same MMTV reporter."}, "MR L848Q/S843P": {"molecular_target": "T2, MR L848Q/S843P (Homo sapiens, UniProt P08235, L848Q/S843P)", "T2 construct": "(S843P and L848Q) within the context of the full length wild type receptor; expressed in transfected cells; host or cells: Cos-7", "T2 sequence (P08235 1-984 S843P/L848Q)": "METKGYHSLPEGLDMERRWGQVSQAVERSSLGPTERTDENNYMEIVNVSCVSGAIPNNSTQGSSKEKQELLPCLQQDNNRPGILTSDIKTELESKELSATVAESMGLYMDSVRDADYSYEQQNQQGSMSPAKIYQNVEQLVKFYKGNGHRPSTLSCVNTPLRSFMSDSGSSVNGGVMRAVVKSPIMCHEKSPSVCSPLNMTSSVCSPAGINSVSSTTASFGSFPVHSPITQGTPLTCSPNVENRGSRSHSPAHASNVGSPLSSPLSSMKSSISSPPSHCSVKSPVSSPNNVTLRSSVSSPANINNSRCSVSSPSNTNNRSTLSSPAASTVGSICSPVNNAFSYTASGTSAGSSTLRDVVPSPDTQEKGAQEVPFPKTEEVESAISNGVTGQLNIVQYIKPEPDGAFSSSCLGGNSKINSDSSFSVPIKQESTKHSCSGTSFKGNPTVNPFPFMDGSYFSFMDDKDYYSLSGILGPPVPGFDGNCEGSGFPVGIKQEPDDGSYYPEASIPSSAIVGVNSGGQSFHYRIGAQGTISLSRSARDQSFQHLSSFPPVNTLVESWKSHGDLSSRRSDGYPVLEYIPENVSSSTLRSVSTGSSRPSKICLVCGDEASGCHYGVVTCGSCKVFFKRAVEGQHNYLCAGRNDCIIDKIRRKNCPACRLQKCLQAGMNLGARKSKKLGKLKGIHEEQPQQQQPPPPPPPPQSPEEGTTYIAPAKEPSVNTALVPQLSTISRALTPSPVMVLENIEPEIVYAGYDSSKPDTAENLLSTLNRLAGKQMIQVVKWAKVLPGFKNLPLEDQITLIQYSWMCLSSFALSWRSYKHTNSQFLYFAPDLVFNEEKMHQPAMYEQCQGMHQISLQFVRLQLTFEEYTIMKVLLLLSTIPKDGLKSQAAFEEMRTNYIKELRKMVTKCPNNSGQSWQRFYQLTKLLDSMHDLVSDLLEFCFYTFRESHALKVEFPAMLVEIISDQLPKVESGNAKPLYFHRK", "assay": "MMTV luciferase reporter assay in Cos-7 cells", "format": "cell-based", "details": "double mutation", "experimental": "as §1, §2"}}, "note": "“Also recorded” adds a separate entry of the source.", "data": [{"smiles": "C[C@]12C[C@H](O)[C@H]3[C@@H](CCC4=CC(=O)CC[C@@]43C)[C@@H]1CC[C@@H]2C(=O)CO", "note": "[corticosterone]", "values": [{"measurement": "activation of GR Q642L/P637S", "setting": "GR Q642L/P637S", "value": "severely affects activation"}, {"measurement": "activation of MR L848Q/S843P", "setting": "MR L848Q/S843P", "value": "totally abolished; also recorded: severely affects activation"}]}, {"smiles": "C[C@]12CCC(=O)C=C1CC[C@@H]1[C@@H]2[C@@H](O)C[C@@]2(C)[C@H]1CC[C@]2(O)C(=O)CO", "note": "[cortisol]", "values": [{"measurement": "activation of GR Q642L/P637S", "setting": "GR Q642L/P637S", "value": "severely affects activation"}, {"measurement": "activation of MR L848Q/S843P", "setting": "MR L848Q/S843P", "value": "totally abolished; also recorded: severely affects activation"}]}]}
